Holding throughout (type): cell-based
Test [1] has as its system Staphylococcus aureus 209-P. Put plainly: MIC, standard agar dilution method, Staphylococcus aureus 209-P. The note with it: Mueller Hinton agar, 18 hours, 37° C. The procedure: (§1) Minimal inhibitory concentration (MIC) was determined by the standard agar dilution method of the Japan Society of Chemotherapy.
(§2) Compounds were dissolved in appropriate solvents (sterilized water for sodium salts and acetone-water [1:1] for free acids) and serial two-fold dilutions were made. Sodium salt of Cefazolin was chosen as the control compound.
(§3) One-ml aliquots of each dilution were mixed with 9 ml of Mueller Hinton gar in petri-dishes to make agar plates containing the compound at serially diluted concentrations. After agar hardened, plates were put in an incubator at 37° C. for 1.5-2 hours with the lids slightly open to evaporate acetone off the plates.
(§4) Test organisms were grown for 18 hours at 37° C. in Trypticase Soy broth and diluted in saline to approximately 10^6 colony forming units per ml. A loopful of each cell suspension was applied on the agar plate mentioned above and the plates were incubated for 18 hours at 37° C. before MIC was determined.
(§5) The results are shown in Table 2, wherein the compound of Example 5 was selected and used in a form of free carboxylic acid as set forth in the Example 5, Item (a).
(In general: Agar dilution tests growth on a series of plates holding different concentrations.)

For another test, the system named is Escherichia coli NIHJ. Put plainly: MIC, standard agar dilution method, Escherichia coli NIHJ. The note with it: Escherichia coli NIHJ; Mueller Hinton agar, 18 hours, 37° C.; read-out: MIC. The procedure: as §1, §2, §3, §4, §5
Test [2] relates to Klebsielle pneumoniae EK-6. Put plainly: MIC, standard agar dilution method, Klebsielle pneumoniae EK-6. The note with it: Klebsielle pneumoniae EK-6; Mueller Hinton agar, 18 hours, 37° C.; read-out: MIC. The method, then: as §1, §2, §3, §4, §5
A further test relates to Proteus morganii EP-14. Put plainly: MIC, standard agar dilution method, Proteus morganii EP-14. The following applies: Morganella morganii, EP14, Mueller Hinton agar, 18 hours, 37° C. The procedure:
as §1, §2, §3, §4, §5

The test system of test [3] is Pseudomonas aeruginosa EP-172. Put plainly: MIC, standard agar dilution method, Pseudomonas aeruginosa EP-172. The following applies: EP172, Mueller Hinton agar, 18 hours, 37° C. The method, then:
as §1, §2, §3, §4, §5

Test [4] relates to Serratia marcescens ES-75. Put plainly: MIC, standard agar dilution method, Serratia marcescens ES-75. The following applies: ES75, Mueller Hinton agar, 18 hours, 37° C. The procedure:
as §1, §2, §3, §4, §5

A further test has as its system Proteus bulgaris E-18. Put plainly: MIC, standard agar dilution method, Proteus bulgaris E-18. The following applies: Mueller Hinton agar, 18 hours, 37° C. The method, then:
as §1, §2, §3, §4, §5

Each structure is given as a SMILES string. Converted amounts (≈) assume the structure as drawn. Some results are limits rather than exact numbers.

In the case of `CCn1nnnc1SCC1=C(C(=O)O)N2C(=O)[C@](NC(=O)[C@H](NC(=O)c3coc4cc(O)c(O)cc4c3=O)c3ccc(O)cc3)(OC)[C@H]2SC1` [Example 32, 7β-[D-2-(6,7-Dihydroxychromone-3-carboxamido)-2-(4-hydroxyphenyl)acetamido]-7α-methoxy-3-(1-ethyl-5-tetrazolyl)thiomethyl-3-cephem-4-carboxylic acid], the MIC in test [1] is 1.56 µg/mL (≈ 2.15 µM); with Escherichia coli NIHJ, 3.13 µg/mL (≈ 4.31 µM); in test [2], no more than 0.1 µg/mL; against Proteus morganii EP-14 it was 12.5 µg/mL (≈ 17.2 µM); in test [3], 0.4 µg/mL (≈ 0.551 µM); in test [4] it was 0.2 µg/mL (≈ 0.276 µM). The MIC with Proteus bulgaris E-18 is 1.56 µg/mL (≈ 2.15 µM).
Take `CO[C@@]1(NC(=O)[C@H](NC(=O)c2coc3cc(O)c(O)cc3c2=O)c2ccc(O)cc2)C(=O)N2C(C(=O)O)=C(CSc3nnnn3CCN(C)C)CS[C@@H]21` [Example 31, 7β-[D-2-(6,7-Dihydroxychromone-3-carboxamido)-2-(4-hydroxyphenyl)acetamido]-7α-methoxy-3-[1-[2-(N,N-dimethylamino)ethyl]-5-tetrazolyl]thiomethyl-3-cephem-4-carboxylic acid]: the MIC is 3.13 µg/mL (≈ 4.07 µM) in test [1]; 12.5 µg/mL (≈ 16.3 µM) with Escherichia coli NIHJ; no more than 0.1 µg/mL in test [2]; 25 µg/mL (≈ 32.5 µM) in the test with Proteus morganii EP-14; 0.8 µg/mL (≈ 1.04 µM) in test [3]; 0.4 µg/mL (≈ 0.52 µM) in test [4]. In the test on Proteus bulgaris E-18, this compound came in with an MIC of 3.13 µg/mL (≈ 4.07 µM).
As for `CO[C@@]1(NC(=O)[C@H](NC(=O)c2coc3c(C)c(OCc4ccccc4)ccc3c2=O)c2ccccc2)C(=O)N2C(C(=O)O)=C(COC(C)=O)CS[C@@H]21` [Example 13, 7β-[D-2-(7-Benzyloxy-8-methylchromone-3-carboxamido)-2-phenylacetamido]-7α-methoxy-3-acetoxymethyl-3-cephem-4-carboxylic acid], the MIC stood at 0.4 µg/mL (≈ 0.55 µM) in test [1]; 3.13 µg/mL (≈ 4.3 µM) in the test with Escherichia coli NIHJ; 3.13 µg/mL (≈ 4.3 µM) in test [2]; 1.56 µg/mL (≈ 2.14 µM) against Proteus morganii EP-14; 12.5 µg/mL (≈ 17.2 µM) in test [3]; 3.13 µg/mL (≈ 4.3 µM) in test [4]. In addition, it took 0.8 µg/mL (≈ 1.1 µM) to inhibit growth with Proteus bulgaris E-18 (MIC).
For `CO[C@@]1(NC(=O)[C@H](NC(=O)c2coc3cc(O)c(O)cc3c2=O)c2ccccc2)C(=O)N2C(C(=O)O)=C(COC(C)=O)CS[C@@H]21` [Example 5, 7β-[D-2-(6,7-Dihydroxychromone-3-carboxamido)-2-phenylacetamido]-7α-methoxy-3-acetoxymethyl-3-cephem-4-carboxylic acid], the MIC was 3.13 µg/mL (≈ 4.89 µM) in test [1]; 0.8 µg/mL (≈ 1.25 µM) in the test with Escherichia coli NIHJ; no more than 0.1 µg/mL in test [2]; 25 µg/mL (≈ 39.1 µM) against Proteus morganii EP-14; 3.13 µg/mL (≈ 4.89 µM) in test [3]; 0.2 µg/mL (≈ 0.313 µM) in test [4]. The same compound registered an MIC against Proteus bulgaris E-18 of 0.8 µg/mL (≈ 1.25 µM).
Regarding `CO[C@@]1(NC(=O)[C@H](NC(=O)c2coc3c(O)c(O)ccc3c2=O)c2ccc(O)cc2)C(=O)N2C(C(=O)O)=C(CSc3nnnn3CC(=O)O)CS[C@@H]21` [Example 18, 7β-[D-2-(7,8-Dihydroxychromone-3-carboxamido)-2-(4-hydroxyphenyl)acetamido]-7α-methoxy-3-(1-carboxymethyl-5-tetrazolyl)thiomethyl-3-cephem-4-carboxylic acid], the MIC in test [1] was 25 µg/mL (≈ 33.1 µM); in the test on Escherichia coli NIHJ, 25 µg/mL (≈ 33.1 µM); in test [2], 0.8 µg/mL (≈ 1.06 µM); in the test on Proteus morganii EP-14, 50 µg/mL (≈ 66.2 µM); in test [3], 6.25 µg/mL (≈ 8.27 µM); in test [4], 3.13 µg/mL (≈ 4.14 µM). This compound gave a minimal inhibitory concentration (MIC) with Proteus bulgaris E-18 of 6.25 µg/mL (≈ 8.27 µM).
With `CO[C@@]1(NC(=O)[C@H](NC(=O)c2coc3c(O)c(O)ccc3c2=O)c2ccc(O)cc2)C(=O)N2C(C(=O)O)=C(CSc3nnnn3C)CS[C@@H]21` [Example 4, 7β-[D-2-(7,8-Dihydroxychromone-3-carboxyamido)-2-(4-hydroxyphenyl)acetamido]-7α-methoxy-3-(1-methyl-5-tetrazolyl)thiomethyl-3-cephem-4-carboxylic acid], the minimum inhibitory concentration (MIC) in test [1] was 3.13 µg/mL (≈ 4.4 µM); in the test on Escherichia coli NIHJ it was 3.13 µg/mL (≈ 4.4 µM); in test [2] it was no more than 0.1 µg/mL; in the test with Proteus morganii EP-14, 50 µg/mL (≈ 70.3 µM); in test [3], 0.8 µg/mL (≈ 1.12 µM); in test [4], 0.8 µg/mL (≈ 1.12 µM). The compound also gave an MIC with Proteus bulgaris E-18 of 3.13 µg/mL (≈ 4.4 µM).
As for `CO[C@@]1(NC(=O)[C@H](NC(=O)c2coc3cc(O)c(O)cc3c2=O)c2ccccc2)C(=O)N2C(C(=O)O)=C(CSc3nnc(C)s3)CS[C@@H]21` [Example 6, 7β-[D-2-(6,7-Dihydroxychromone-3-carboxyamido)-2-phenylacetamido]-7α-methoxy-3-[2-5-methyl-2-(1,3,4-thiadiazolyl)]thiomethyl-3-cepnem-4-carboxylic acid], the MIC was 3.13 µg/mL (≈ 4.4 µM) in test [1]; 0.8 µg/mL (≈ 1.12 µM) in the test with Escherichia coli NIHJ; no more than 0.1 µg/mL in test [2]; 12.5 µg/mL (≈ 17.6 µM) against Proteus morganii EP-14; 3.13 µg/mL (≈ 4.4 µM) in test [3]; no more than 0.1 µg/mL in test [4]. In the test on Proteus bulgaris E-18, this compound returned a minimal inhibitory concentration (MIC) of 0.8 µg/mL (≈ 1.12 µM).
Turning to `CO[C@@]1(NC(=O)[C@H](NC(=O)c2coc3cc(O)c(O)cc3c2=O)c2ccc(O)cc2)C(=O)N2C(C(=O)O)=C(CSc3nnc(CC(=O)O)o3)CS[C@@H]21` [Example 29, 7β-[D-2-(6,7-Dihydroxychromone-3-carboxamido)-2-(4-hydroxyphenyl)acetamido]-7α-methoxy-3-[5-carboxymethyl-2-(1,3,4-oxadiazolyl)]thiomethyl-3-cephem-4-carboxylic acid], the minimum inhibitory concentration (MIC) in test [1] is 6.25 µg/mL (≈ 8.27 µM); in the test on Escherichia coli NIHJ it was 12.5 µg/mL (≈ 16.5 µM); in test [2] it was no more than 0.1 µg/mL; in the test on Proteus morganii EP-14, 25 µg/mL (≈ 33.1 µM); in test [3], 0.8 µg/mL (≈ 1.06 µM); in test [4], 0.8 µg/mL (≈ 1.06 µM). The MIC in the test on Proteus bulgaris E-18 was determined as 3.13 µg/mL (≈ 4.14 µM).
In the case of `CO[C@@]1(NC(=O)[C@H](NC(=O)c2coc3cc(O)c(O)cc3c2=O)c2ccc(O)cc2)C(=O)N2C(C(=O)O)=C(CSc3nnnn3CC(=O)O)CS[C@@H]21` [Example 15, 7β-[D-2-(6,7-Dihydroxychromone-3-carboxamido)-2-(4-hydroxyphenyl)acetamido]-7α-methoxy-3-(1-carboxymethyl-5-tetrazolyl)thiomethyl-3-cephem-4-carboxylic acid], the MIC is 6.25 µg/mL (≈ 8.27 µM) in test [1]; 6.25 µg/mL (≈ 8.27 µM) in the test on Escherichia coli NIHJ; no more than 0.1 µg/mL in test [2]; 12.5 µg/mL (≈ 16.5 µM) with Proteus morganii EP-14; 3.13 µg/mL (≈ 4.14 µM) in test [3]; 0.4 µg/mL (≈ 0.529 µM) in test [4]. For the same compound, it took 1.56 µg/mL (≈ 2.06 µM) to inhibit growth against Proteus bulgaris E-18 (MIC).
As for `CCOC(=O)Oc1cc2occ(C(=O)N[C@@H](C(=O)N[C@]3(OC)C(=O)N4C(C(=O)O)=C(COC(C)=O)CS[C@@H]43)c3ccc(O)cc3)c(=O)c2cc1OC(=O)OCC` [Example 22, 7β-[D-2-(6,7-Bis(ethoxycarbonyloxy)chromone-3-carboxamido)-2-(4-hydroxyphenyl)acetamido]-7α-methoxy-3-acetoxymethyl-3-cephem-4-carboxylic acid], the MIC in test [1] is 1.56 µg/mL (≈ 1.95 µM); in the test with Escherichia coli NIHJ, 6.25 µg/mL (≈ 7.82 µM); in test [2], no more than 0.1 µg/mL; against Proteus morganii EP-14, 25 µg/mL (≈ 31.3 µM); in test [3], 0.8 µg/mL (≈ 1 µM); in test [4], 0.4 µg/mL (≈ 0.5 µM). In the test on Proteus bulgaris E-18, it took 1.56 µg/mL (≈ 1.95 µM) to inhibit growth (MIC).
As to `CO[C@@]1(NC(=O)[C@H](NC(=O)c2coc3ccccc3c2=O)c2ccc(O)cc2)C(=O)N2C(C(=O)O)=C(CSc3nnnn3C)CS[C@@H]21` [Example 10, 7β-[D-2-(Chromone-3-carboxamido)-2-(4-hydroxyphenyl)acetamido]-7α-methoxy-3-(1-methyl-5-tetrazolyl)thiomethyl-3-cephem-4-carboxylic acid], the MIC in test [1] came out at 0.4 µg/mL (≈ 0.589 µM); in the test with Escherichia coli NIHJ, 12.5 µg/mL (≈ 18.4 µM); in test [2], 12.5 µg/mL (≈ 18.4 µM); against Proteus morganii EP-14, 25 µg/mL (≈ 36.8 µM); in test [3] it was 25 µg/mL (≈ 36.8 µM); in test [4], 12.5 µg/mL (≈ 18.4 µM). In the test with Proteus bulgaris E-18, the MIC was 50 µg/mL (≈ 73.6 µM).
As for `CO[C@@]1(NC(=O)[C@H](NC(=O)c2coc3c(OC(C)=O)c(OC(C)=O)ccc3c2=O)c2ccc(O)cc2)C(=O)N2C(C(=O)O)=C(CSc3nnnn3C)CS[C@@H]21` [Example 2], the MIC in test [1] was 1.56 µg/mL (≈ 1.96 µM); in the test on Escherichia coli NIHJ, 3.13 µg/mL (≈ 3.93 µM); in test [2], no more than 0.1 µg/mL; in the test on Proteus morganii EP-14, 50 µg/mL (≈ 62.8 µM); in test [3] it was 0.8 µg/mL (≈ 1.01 µM); in test [4] it was 0.8 µg/mL (≈ 1.01 µM). This compound gave an MIC against Proteus bulgaris E-18 of 6.25 µg/mL (≈ 7.85 µM).
For `COC(=O)Cn1nnnc1SCC1=C(C(=O)O)N2C(=O)[C@](NC(=O)[C@H](NC(=O)c3coc4cc(O)c(O)cc4c3=O)c3ccc(O)cc3)(OC)[C@H]2SC1` [Example 19, 7β-[D-2-(6,7-Dihydroxychromone-3-carboxamido)-2-(4-hydroxyphenyl)acetamido]-7α-methoxy-3-(1-methoxycarbonylmethyl-5-tetrazolyl)thiomethyl-3-cephem-4-carboxylic acid], the MIC was 3.13 µg/mL (≈ 4.07 µM) in test [1]; 1.56 µg/mL (≈ 2.03 µM) in the test with Escherichia coli NIHJ; no more than 0.1 µg/mL in test [2]; 1.56 µg/mL (≈ 2.03 µM) against Proteus morganii EP-14; 0.8 µg/mL (≈ 1.04 µM) in test [3]; no more than 0.1 µg/mL in test [4]. The compound also yielded an MIC in the test with Proteus bulgaris E-18 of 0.4 µg/mL (≈ 0.52 µM).

The term MIC denotes the least concentration at which growth counts as inhibited.

Values taken from patent publication US4415567A, “7α-Methoxycephalosporin derivatives, and antibacterial drugs containing the same” (Eisai Co., Ltd., priority 1980, dated 1983).
